Data from patent publication US4183929A, “Tri-substituted triazines” (American Cyanamid Company, priority 1978, dated 1980).

Assays:
[1] = tested on: citrated sheep plasma (CSP); assay: In vitro anti-coagulant activity (AC) test; format: biochemical; conditions: for AC Wells: Table I, twofold serial dilution, recalcified citrated sheep plasma; for In Vitro Activity Anti-Coagulant Activity (Wells) AC: Table II
Experimental: The sheep RBC's, kept in suspension throughout the slotting incubation time, become enmeshed in the fibrin matrix if a clot forms. Upon centrifugation of the plate, untrapped RBC's form buttons, the sizes of which correspond to the degree of clot inhibition; this providing a measure of anti-coagulant activity (AC).

[2] = tested on: late components of human complement (C3-C9); assay: Test, Code 035 (C3-C9 inhibitor), lysis of EAC 142; format: biochemical; conditions: Table I; twofold serial dilution
Excerpt: (§1) An active inhibitor protects C2 from C1 and C4; (ii) Test, Code 035 (C3-C9 inhibitor) - This test determines the ability of the late components of human complement (C3-C9) to lyse EAC 142 in the presence of appropriate dilutions of the test compound. An active inhibitor protects EAC 142 from lysis by human C3-C9; (iii) Test, Code 036 (C-Shunt inhibitor) - In this test human erythrocytes rendered fragile are lysed in autologous serum via the shunt pathway activated by cobra venom factor in the presence of appropriate dilutions of the test compound. Inhibition of the shunt pathway results in failure of lysis; (iv) Forssman Vasculitis Test - Here, the well known complement dependent lesion, Forssman vasculitis, is produced in guinea pigs by intradermal injection of rabbit anti-Forssman antiserum. The lesion is measured in terms of diameter, edema and hemorrhage and the extent to which a combined index of these is inhibited by prior intraperitoneal injection of the test compound at 200 mg is then reported, unless otherwise stated; (v) Forssman Shock Test--Lethal shock is produced in guinea pigs by an i.v. injection of anti-Forssman antiserum and the harmonic mean death time of treated guinea pigs is compared with that of simultaneous controls; (vi) Complement Level Reduction Test - In this test, the above dosed guinea pigs, or others, are bled for serum and the complement level is determined in undiluted serum by the capillary tube method of U.S. Pat. No. 3,876,376 and compared to undosed control guinea pigs; and (vii) Cap 50 Test - Here, appropriate amounts of the test compound are added to a pool of guinea pig serum in vitro, after which the undiluted serum capillary tube assay referred to above is run. The concentration of compound inhibiting 50% is reported.

[3] = Intrinsic Therapeutic Index (ITI) from Code 026 and AC wells; conditions: Table II; for Logarithmic Difference Expressed As Wells: Code 026 wells minus AC wells (base 2); for Intrinsic Therapeutic Index: antilogarithm (base 2) of the difference of Code 026 and AC wells
Excerpt: The computation of an Intrinsic Therapeutic Index (ITI) was devised to correlate the results expressed in wells obtained in the in vitro Code 026 (C1 inhibitor) test and the in vitro anti-coagulant (AC) test into a meaningful value which would aid in the net evaluation of the activity of the compounds of this invention.
The ITI is thus a measure of the separation of anti-complement and anti-coagulant activities; the higher the numerical value the more therapeutically useful the separation of activities.

[4] = biological target: T1, activated human C1 (Homo sapiens, UniProt P09871); assay: Test, Code 026 (C1 inhibitor); format: biochemical; conditions: for Cl 026 Wells: Table I, twofold serial dilution, higher well number indicates higher activity; for In Vitro Activity Complment Inhibiting Activity (Wells) Code 026: Table II
T1 construct: fluid-phase human C2 consumption with C4 present
Excerpt: as §1

[5] = tested on: shunt pathway; assay: Test, Code 036 (C-Shunt inhibitor), lysis of human erythrocytes via cobra venom factor activated shunt pathway; format: cell-based; conditions: Table I; twofold serial dilution
Excerpt: An active inhibitor protects C2 from C1 and C4; (ii) Test, Code 035 (C3-C9 inhibitor) - This test determines the ability of the late components of human complement (C3-C9) to lyse EAC 142 in the presence of appropriate dilutions of the test compound. An active inhibitor protects EAC 142 from lysis by human C3-C9; (iii) Test, Code 036 (C-Shunt inhibitor) - In this test human erythrocytes rendered fragile are lysed in autologous serum via the shunt pathway activated by cobra venom factor in the presence of appropriate dilutions of the test compound. Inhibition of the shunt pathway results in failure of lysis; (iv) Forssman Vasculitis Test - Here, the well known complement dependent lesion, Forssman vasculitis, is produced in guinea pigs by intradermal injection of rabbit anti-Forssman antiserum. […]

T1 sequence (P09871 16-688): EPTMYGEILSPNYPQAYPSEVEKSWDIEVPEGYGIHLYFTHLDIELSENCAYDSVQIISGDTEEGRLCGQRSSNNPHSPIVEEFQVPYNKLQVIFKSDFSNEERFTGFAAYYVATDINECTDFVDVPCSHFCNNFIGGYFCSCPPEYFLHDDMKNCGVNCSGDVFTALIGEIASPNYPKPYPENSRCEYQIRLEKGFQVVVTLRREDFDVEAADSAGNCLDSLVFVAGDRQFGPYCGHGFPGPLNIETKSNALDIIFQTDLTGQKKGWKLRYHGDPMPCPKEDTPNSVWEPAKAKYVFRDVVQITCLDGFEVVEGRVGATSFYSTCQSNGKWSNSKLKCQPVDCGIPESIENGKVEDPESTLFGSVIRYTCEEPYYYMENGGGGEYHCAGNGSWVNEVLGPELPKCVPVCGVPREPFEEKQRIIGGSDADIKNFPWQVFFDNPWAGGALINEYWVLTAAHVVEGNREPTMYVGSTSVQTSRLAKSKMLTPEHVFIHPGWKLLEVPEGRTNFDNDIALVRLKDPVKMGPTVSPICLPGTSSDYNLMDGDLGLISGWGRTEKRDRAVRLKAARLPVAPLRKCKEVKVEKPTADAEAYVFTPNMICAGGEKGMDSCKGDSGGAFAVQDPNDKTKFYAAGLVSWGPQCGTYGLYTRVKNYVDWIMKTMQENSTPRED
T1 sequence (P00736 18-705 partner): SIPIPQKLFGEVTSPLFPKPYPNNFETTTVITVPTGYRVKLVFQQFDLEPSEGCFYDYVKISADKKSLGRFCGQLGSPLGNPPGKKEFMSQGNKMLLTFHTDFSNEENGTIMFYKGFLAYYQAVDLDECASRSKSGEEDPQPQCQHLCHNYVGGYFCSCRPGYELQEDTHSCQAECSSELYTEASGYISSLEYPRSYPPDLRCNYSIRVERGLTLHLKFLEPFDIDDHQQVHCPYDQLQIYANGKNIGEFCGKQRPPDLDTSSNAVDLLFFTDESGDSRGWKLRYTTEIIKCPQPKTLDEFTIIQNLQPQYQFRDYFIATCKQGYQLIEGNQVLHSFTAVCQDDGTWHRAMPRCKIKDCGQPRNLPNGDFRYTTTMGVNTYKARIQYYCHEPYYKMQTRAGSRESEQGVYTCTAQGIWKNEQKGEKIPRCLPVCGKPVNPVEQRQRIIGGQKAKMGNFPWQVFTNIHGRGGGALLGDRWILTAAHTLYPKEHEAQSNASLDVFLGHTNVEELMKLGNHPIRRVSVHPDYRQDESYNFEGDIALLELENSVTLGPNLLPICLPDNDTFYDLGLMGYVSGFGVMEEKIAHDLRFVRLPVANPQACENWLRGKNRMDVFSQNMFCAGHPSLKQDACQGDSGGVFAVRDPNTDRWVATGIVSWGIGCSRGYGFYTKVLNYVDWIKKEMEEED
T1 sequence (P02745 23-245 partner): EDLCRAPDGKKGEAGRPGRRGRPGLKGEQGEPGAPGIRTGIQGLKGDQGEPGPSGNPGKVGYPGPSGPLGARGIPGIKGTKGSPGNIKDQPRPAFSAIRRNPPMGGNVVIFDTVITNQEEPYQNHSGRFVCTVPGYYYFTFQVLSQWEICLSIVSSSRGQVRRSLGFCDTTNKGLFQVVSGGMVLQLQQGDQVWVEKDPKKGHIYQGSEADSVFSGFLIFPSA
T1 sequence (P02746 28-253 partner): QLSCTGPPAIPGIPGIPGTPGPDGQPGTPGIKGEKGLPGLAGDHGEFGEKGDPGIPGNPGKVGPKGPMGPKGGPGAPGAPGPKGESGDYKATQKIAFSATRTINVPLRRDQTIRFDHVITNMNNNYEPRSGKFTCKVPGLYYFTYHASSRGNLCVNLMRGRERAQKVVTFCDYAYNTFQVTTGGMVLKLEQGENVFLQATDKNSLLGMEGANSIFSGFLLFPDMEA
T1 sequence (P02747 29-245 partner): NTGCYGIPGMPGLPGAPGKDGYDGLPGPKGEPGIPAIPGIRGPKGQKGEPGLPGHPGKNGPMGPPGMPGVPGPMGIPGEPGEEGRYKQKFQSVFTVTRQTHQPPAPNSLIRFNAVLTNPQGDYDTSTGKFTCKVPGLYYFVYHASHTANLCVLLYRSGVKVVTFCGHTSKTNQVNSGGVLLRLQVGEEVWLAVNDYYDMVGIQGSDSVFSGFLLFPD

Row | Compound | AC Wells [1] [Wells] | In Vitro Activity Anti-Coagulant Activity (Wells) AC [1] [Wells] | C-Late 035 Wells [2] | Logarithmic Difference Expressed As Wells [3] | Intrinsic Therapeutic Index [3] | Cl 026 Wells [4] | In Vitro Activity Complment Inhibiting Activity (Wells) Code 026 [4] | Shunt Inhibition 036 Wells [5]
1 | O=C([O-])c1cc(Nc2nc(Nc3cc(C(=O)[O-])cc(C(=O)[O-])c3)nc(Nc3cc(C(=O)[O-])cc(C(=O)[O-])c3)n2)cc(C(=O)[O-])c1.[Na+].[Na+].[Na+].[Na+].[Na+].[Na+] [5,5',5"-(s-Triazine-2,4,6-triyltriimino)triisophthalic acid hexasodium salt] | -2 | -2 | N | – | – | – | – | –
2 | O=C([O-])c1cc(Nc2nc(Cl)nc(Nc3cc(C(=O)[O-])cc(C(=O)[O-])c3)n2)cc(C(=O)[O-])c1.[Na+].[Na+].[Na+].[Na+] [5,5'-[(6-Chloro-s-triazine-2,4-diyl)diimino]-diisophthalic acid tetrasodium salt] | < -2 | -2 | N | +5 Wells | 32 | +3 Wells | +3 Wells | N
3 | O=C(O)CN(CC(=O)O)c1nc(N(CC(=O)O)CC(=O)O)nc(N(CC(=O)O)CC(=O)O)n1 [(s-Triazine-2,4,6-triyltrinitrilo)hexaacetic acid] | -2 | -2 | N | +5 Wells | 32 | +3 Wells | +3 Wells | N
